Results from US10064843B2, “Bis-amide derivative and use thereof” (University-Industry Cooperation Group of Kyung Hee …, priority 2013, dated 2018).

Tests used:
HCV replicon cells = test: Luciferase activity in HCV replicon cells; type: cell-based; settings: Hepatitis C virus; 2 μM, 72 hours; FIG. 6; read-out: inhibition of luciferase activity of HCV
Protocol: Additionally, a series of compounds (WJCPA-1 to WJCPA-135) having the bis-amide structure as a parent structure in common, based on the inhibitory effect of WJCPA-126 against the PPIase activity, were synthesized and their activities were confirmed. Specifically, Huh7-rep cells were treated with each of the compounds at a concentration of 2 μM for 3 days, and the expression level of NS5A was confirmed by performing an immunoblot analysis according to a known method (FIG. 5). The 32 kinds of compounds confirmed to have excellent inhibitory effect especially against the NS5A expression from the immunoblot experiment were measured regarding their inhibitory effect against luciferase activity and the results are illustrated in FIG. 6. In the same manner as in western blot, the HCV replicon cells were treated with each of the compounds at a concentration of 2 μM and incubated for 72 hours, and the total cell lysate of the cultured cells were used for the analyses of western blot and the activity of luciferase.

CypA = biological target: T1, CypA (Homo sapiens, UniProt P62937); test: PPIase activity of CypA, coupled chymotrypsin analysis; type: biochemical; settings: FIG. 7a; read-out: IC50 PPIase activity of CypA
T1 construct: GST (N, cleaved yes); made in house; host or cells: E. coli (pGEX-KG)
T1 sequence (P62937 whole entry): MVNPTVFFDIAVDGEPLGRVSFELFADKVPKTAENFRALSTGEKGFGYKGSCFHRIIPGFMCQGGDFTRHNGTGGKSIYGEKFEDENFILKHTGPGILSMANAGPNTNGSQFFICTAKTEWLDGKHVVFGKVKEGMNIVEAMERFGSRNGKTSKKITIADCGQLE
Protocol: Example 5: Analysis of Peptidyl-Prolyl Cis-Trans Isomerase Activity
The PPIase activity of CypA was determined according to a known method using the coupled chymotrypsin analysis.
The cis-trans isomerization was measured by absorbance at 390 nm in a spectrophotometer. Additionally, the remaining percentage of enzyme activity was measured at different concentrations of the inhibitor to calculate the 50% inhibition concentration (IC50) to the PPIase activity. Data was optimized via graphs by exporting using Graph Pad Prism 5.

Compound	inhibition at 2 µM (HCV replicon cells) [%]	IC50 (CypA) [µM]
Cc1ccc(C)c(C(=O)N(c2ccc(C(C)C)cc2)C(C(=O)NC2CCCCC2)c2ccc(Cl)cc2)c1 (stereo not drawn) [WJCPA30, N-[(4-chloro-phenyl)-cyclohexylcarbamoyl-methyl]-N-(4-isopropyl-phenyl)-2,5-dimethyl-benzamide]	≤ 80	0.0106
COc1ccc(CCC(=O)N(c2ccc(Br)cc2)C(C(=O)NC2CCCCC2)c2ccc([N+](=O)[O-])cc2)cc1 (stereo not drawn) [WJCPA133, N-(4-bromo-phenyl)-N-[cyclohexylcarbamoyl-(4-nitro-phenyl)-methyl]-3-(4-methoxy-phenyl)-propionamide]		0.0112
